Results on 11 compounds are retold here after BindingDB's records for doi:10.1021/jm9901125 (Sapienza University of Rome, 2000).

Each structure is given as a SMILES string. Some results are limits rather than exact numbers.

This test deals with T1, Gag-Pol polyprotein [588-1027]/[588-1147] (Human immunodeficiency virus 1, UniProt P04585).
T1 construct: 588-1027; 588-1147
Briefly: HIV-1 RT Assay. The note with it: pH 7.8; 37 °C.
Consider `CCOC(=O)c1cccn1S(=O)(=O)c1cc(Cl)ccc1-n1cccc1` [Ethyl 1-{[5-Chloro-2-(1H-pyrrol-1-yl)phenyl]sulfonyl}-1H-pyrrole-2-carboxylate], for which the IC50 (usually the concentration at which inhibition is half-maximal) was more than 100000 nM.
`CCOC(=O)c1cc(C(C)O)cn1S(=O)(=O)c1cc(Cl)ccc1N` (stereo unspecified) [ethyl 1-[(2-amino-5-chlorobenzene)sulfonyl]-4-(1-hydroxyethyl)-1H-pyrrole-2-carboxylate]: half-maximal inhibition (IC50) required 170 nM.
Under `CCOC(=O)c1cc(CO)cn1S(=O)(=O)c1cc(Cl)ccc1N` [ethyl 1-[(2-amino-5-chlorobenzene)sulfonyl]-4-(hydroxymethyl)-1H-pyrrole-2-carboxylate] stands 50 nM.
The result for `CCOC(=O)c1cc(COC)cn1S(=O)(=O)c1cc(Cl)ccc1N` [ethyl 1-[(2-amino-5-chlorobenzene)sulfonyl]-4-(methoxymethyl)-1H-pyrrole-2-carboxylate] reads 600 nM; that for `CCOC(=O)c1cc(COc2ccccc2)cn1S(=O)(=O)c1cc(Cl)ccc1N` [ethyl 1-[(2-amino-5-chlorobenzene)sulfonyl]-4-(phenoxymethyl)-1H-pyrrole-2-carboxylate], 600 nM.
In the case of `CCOC(=O)c1cc(CNc2ccccc2)cn1S(=O)(=O)c1cc(Cl)ccc1N` [ethyl 1-[(2-amino-5-chlorobenzene)sulfonyl]-4-[(phenylamino)methyl]-1H-pyrrole-2-carboxylate], the IC50 was 500 nM.
The result for `C=Cc1cc(C(=O)OCC)n(S(=O)(=O)c2cc(Cl)ccc2N)c1` [ethyl 1-[(2-amino-5-chlorobenzene)sulfonyl]-4-ethenyl-1H-pyrrole-2-carboxylate] reads 280 nM.
The result for `CCOC(=O)c1cc(C)cn1S(=O)(=O)c1cc(Cl)ccc1N` [ethyl 1-[(2-amino-5-chlorobenzene)sulfonyl]-4-methyl-1H-pyrrole-2-carboxylate] reads 80 nM; that for `CCOC(=O)c1cccn1S(=O)(=O)c1c(N)cccc1Cl` [ethyl 1-[(2-amino-6-chlorobenzene)sulfonyl]-1H-pyrrole-2-carboxylate], more than 100000 nM; that for `CC(C)OC(=O)c1cc(CO)cn1S(=O)(=O)c1cc(Cl)ccc1N` [propan-2-yl 1-[(2-amino-5-chlorobenzene)sulfonyl]-4-(hydroxymethyl)-1H-pyrrole-2-carboxylate], 110 nM.
Under `CC(C)OC(=O)c1cc(CNc2ccccc2)cn1S(=O)(=O)c1cc(Cl)ccc1N` [propan-2-yl 1-[(2-amino-5-chlorobenzene)sulfonyl]-4-[(phenylamino)methyl]-1H-pyrrole-2-carboxylate] stands 300 nM.
